# Experimental data: patent publication US20190134115A1, “Activated Lactobacillus Reuteri Strains for Selective Pathogen Inhibition in a Human Microbial Community” (BioGaia AB, priority 2016, published 2019)
# Where two headings read alike, the source gives them in different places.
# Tests used:
# L. reuteri 6475 = test: Antibiotic susceptibility testing, broth microdilution MIC; type: cell-based; conditions: read-out: Minimum inhibitory concentration
# Procedure: (§1) Antibiotic Susceptibility Testing. Susceptibility of Lactobacillus spp. to antibiotics was determined using standard broth microdilution procedures (24). […] Plates were incubated anaerobically at 37° C. for 24 h. Optical density measurements (600 nm) were recorded using a Synergy™ H1 Hybrid Multi-Mode Microplate Reader (BioTek Instruments, Inc, Winooski, Vt.). Results were compared to a growth control (lactobacilli only), and the minimum inhibitory concentration (MIC) endpoint was the concentration of antibiotic where ≥90% reduction in growth was observed. Significance was determined using student's t test with equal variance.
# L. gasseri LG-3 = test: as above; type: cell-based; conditions: for MIC: Lactobacillus gasseri, read-out: Minimum inhibitory concentration
# Procedure: as §1
# L. reuteri 17938 = test: as above; type: cell-based; conditions: read-out: Minimum inhibitory concentration
# Procedure: as §1
# L. rhamnosus LR-34 = test: as above; type: cell-based; conditions: for Minimum inhibitory concentration / MIC: MRS, anaerobic, 24 h, ≥90% reduction in growth; for MIC: Lacticaseibacillus rhamnosus
# Procedure: as §1, with “Results were compared to a growth control (lactobacilli only), and the minimum inhibitory concentration (MIC) endpoint was the concentration of antibiotic where ≥90% reduction in growth was observed.” left out
# L. casei LC-39 = test: as above; type: cell-based; conditions: for Minimum inhibitory concentration / MIC: MRS, anaerobic, 24 h, ≥90% reduction in growth; for MIC: Lacticaseibacillus casei
# Procedure: as §1, with “Results were compared to a growth control (lactobacilli only), and the minimum inhibitory concentration (MIC) endpoint was the concentration of antibiotic where ≥90% reduction in growth was observed.” left out
# C. difficile R20291 = conditions: C. difficile R20291, CDI patient stool; cited from earlier work
# [1] = test system: C. difficile-associated diarrheal isolates; conditions: cited from earlier work
# C. difficile CD2015 = test: C. difficile invasion of antibiotic-treated human fecal mini-bioreactor arrays (MBRA), qPCR; type: cell-based; conditions: clindamycin-treated MBRA, increase not statistically significant
# Procedure: Mini-bioreactor array (MBRA) preparation, operation and sample collection. Effects of reuterin on C. difficile growth in a human fecal microbial community were tested in MBRAs. Replicate MBRAs (twelve independent 15-mL reactors) and bioreactor medium (BRM2) were prepared as previously described (26). Reactors were inoculated with an anaerobic preparation of a 25% fecal slurry from an anonymous healthy donor (5% w/v final concentration) and were operated in an anaerobic chamber with 5% H2, 5% CO2, 90% N2 atmosphere. After 16 h of outgrowth in batch culture mode, continuous-flow cultivation was initiated at a flow rate of 0.94 ml/h (16 h retention time). After 36 h of flow, reactor communities were treated twice daily with clindamycin (500 mg/L final concentration) for 4.5 days. Reactors were transitioned to fresh medium on day 4 of clindamycin treatment, with 6 reactors receiving standard BRM2 medium and 6 reactors receiving BRM2 supplemented with glycerol (10% v/v final concentration). […]
# Samples (1 ml) were collected from each MBRA as described (27) prior to the initiation of continuous flow and then daily through the duration of the experiment. […] Microbial community and metabolite analysis, and quantification of C. difficile levels by quantitative PCR (qPCR) were performed as described below. […]
# Quantification of C. difficile by qPCR. […]
# [2] = Limosilactobacillus reuteri, 6475, 24 h
# [3] = LG3, L. gasseri LG-3, MRS, anaerobic, 24 h, ≥90% reduction in growth
# [4] = Limosilactobacillus reuteri, L. reuteri 17938, MRS, anaerobic, 24 h, ≥90% reduction in growth
# [5] = LR34, L. rhamnosus LR-34, read-out: Minimum inhibitory concentration
# [6] = LC39, L. casei LC-39, read-out: Minimum inhibitory concentration
"MIC (L. reuteri 6475; Limosilactobacillus reuteri, L. reuteri 6475, MRS, anaerobic, 24 h, ≥90% reduction in growth)","MIC relative to the MIC90 for C. difficile (L. rhamnosus LR-34; L. rhamnosus LR-34, fold greater)","MIC relative to the MIC90 for C. difficile (L. casei LC-39; L. casei LC-39, fold greater)",Compound,MIC (L. reuteri 6475; [2]),"Minimum inhibitory concentration (L. gasseri LG-3; L. gasseri LG-3, MRS, anaerobic, 24 h, ≥90% reduction in growth)",MIC (L. gasseri LG-3; [3]),MIC (L. reuteri 17938; [4]),Minimum inhibitory concentration (L. rhamnosus LR-34; L. rhamnosus LR-34),MIC (L. rhamnosus LR-34; [5]),Minimum inhibitory concentration (L. casei LC-39; L. casei LC-39),MIC (L. casei LC-39; [6]),Minimum inhibitory concentration (C. difficile R20291),MIC90 [1],"C. difficile concentrations, fold greater than controls (C. difficile CD2015)","MIC (L. gasseri LG-3; LG3, 24 h)","MIC (L. reuteri 17938; Limosilactobacillus reuteri, 17938, 24 h)","MIC (L. rhamnosus LR-34; LR34, 24 h, read-out: Minimum inhibitory concentration, L. rhamnosus LR-34)","MIC (L. casei LC-39; LC39, 24 h, read-out: Minimum inhibitory concentration, L. casei LC-39)"
,,,"Cc1ncc([N+](=O)[O-])n1CCO [Metronidazole, metronidazole]",128 µg/mL,>256 µg/mL,> 256 µg/mL,> 256 µg/mL,>256 µg/mL,> 256 µg/mL,>256 µg/mL,> 256 µg/mL,2 µg/mL,2 µg/mL,,,,,
,,,OCC(O)CO [glycerol],,,,,,,,,,,~10 fold,,,,
> 32 µg/mL,4 fold,4 fold,"CCc1c(Cl)c(O)c(Cl)c(O)c1C(=O)O[C@H]1[C@H](O)[C@H](OC)[C@H](OC/C2=C\C=C\C[C@H](O)/C(C)=C/[C@H](CC)[C@@H](O[C@@H]3OC(C)(C)[C@@H](OC(=O)C(C)C)[C@H](O)[C@@H]3O)/C(C)=C/C(C)=C/C[C@@H]([C@@H](C)O)OC2=O)O[C@@H]1C [Fidaxomycin, fidaxomicin]",,,2 µg/mL,> 32 µg/mL,,2 µg/mL,,2 µg/mL,0.5 µg/mL,0.5 µg/mL,,,,,
,,,"CN[C@H](CC(C)C)C(=O)N[C@H]1C(=O)N[C@@H](CC(N)=O)C(=O)N[C@H]2C(=O)N[C@H]3C(=O)N[C@H](C(=O)N[C@H](C(=O)O)c4cc(O)cc(O)c4-c4cc3ccc4O)[C@H](O)c3ccc(c(Cl)c3)Oc3cc2cc(c3O[C@@H]2O[C@H](CO)[C@@H](O)[C@H](O)[C@H]2O[C@H]2C[C@](C)(N)[C@H](O)[C@H](C)O2)Oc2ccc(cc2Cl)[C@H]1O [Vancomycin, vancomycin]",256 µg/mL,,,,256 µg/mL,,256 µg/mL,,4 µg/mL,4 µg/mL,,1 µg/mL,256 µg/mL,> 256 µg/mL,> 256 µg/mL
